Laboratory results taken from ChEMBL document CHEMBL3046845, “A facile synthesis of novel optically active R,R-2-(4-(2-(4-(5-chloro-3-halo-pyridin-2-yloxy)-phenoxy)-propionyloxy)-phenoxy)-propionic acid esters using cyanuric chloride as potential herbicide” (Chin Chem Lett, 2011).

Key:
[1] = Phytoxicity against Hordeum vulgare (barley) assessed as growth inhibition at 125 g/ha after 3 weeks relative to control; format: organism-based; details: in vivo, read-out: GI
[2] = test system: Avena fatua; test: Herbicidal activity against Avena fatua assessed as growth inhibition at 125 g/ha after 3 weeks relative to control; format: functional; details: 504 h, read-out: GI
[3] = test system: Echinochloa crus-galli; test: Herbicidal activity against Echinochloa crus-galli (barnyard grass) assessed as growth inhibition at 125 g/ha after 3 weeks relative to control; format: functional; details: 504 h, read-out: GI
[4] = Phytotoxicity against Triticum aestivum (wheat) assessed as growth inhibition at 125 g/ha after 3 weeks relative to control; format: organism-based; details: in vivo, read-out: GI
[5] = test system: Alopecurus myosuroides; test: Herbicidal activity against Alopecurus myosuroides assessed as growth inhibition at 125 g/ha after 3 weeks relative to control; format: functional; details: 504 h, read-out: GI

SMILES | inhibition at 504 h [1] [%] | inhibition of growth at 125 g/ha [2] [%] | inhibition of growth at 125 g/ha [3] [%] | inhibition at 504 h [4] [%] | inhibition of growth at 125 g/ha [5] [%]
CCCOC(=O)[C@@H](C)Oc1ccc(OC(=O)[C@@H](C)Oc2ccc(Oc3ncc(Cl)cc3Cl)cc2)cc1 | 10 | 50 | 45 | 0 | 36
CC(C)OC(=O)[C@@H](C)Oc1ccc(OC(=O)[C@@H](C)Oc2ccc(Oc3ncc(Cl)cc3F)cc2)cc1 | 12 | 85 | 65 | 0 | 78
CCCOC(=O)[C@@H](C)Oc1ccc(Oc2ncc(Cl)cc2Cl)cc1 | 18 | 45 | 40 | 15 | 35
CC(C)OC(=O)[C@@H](C)Oc1ccc(Oc2ncc(Cl)cc2F)cc1 | 30 | 81 | 57 | 10 | 73
CCCOC(=O)[C@@H](C)Oc1ccc(OC(=O)[C@@H](C)Oc2ccc(Oc3ncc(Cl)cc3F)cc2)cc1 | 15 | 89 | 70 | 0 | 79
CCOC(=O)[C@@H](C)Oc1ccc(OC(=O)[C@@H](C)Oc2ccc(Oc3ncc(Cl)cc3Cl)cc2)cc1 | 15 | 54 | 54 | 0 | 52
COC(=O)[C@@H](C)Oc1ccc(OC(=O)[C@@H](C)Oc2ccc(Oc3ncc(Cl)cc3F)cc2)cc1 | 10 | 90 | 80 | 0 | 80
C#CCOC(=O)[C@@H](C)Oc1ccc(OC(=O)[C@@H](C)Oc2ccc(Oc3ncc(Cl)cc3Cl)cc2)cc1 | 5 | 50 | 53 | 0 | 60
CCOC(=O)[C@@H](C)Oc1ccc(Oc2ncc(Cl)cc2F)cc1 | 27 | 90 | 75 | 5 | 82
CCOC(=O)[C@@H](C)Oc1ccc(Oc2ncc(Cl)cc2Cl)cc1 | 25 | 50 | 51 | 10 | 45
C#CCOC(=O)[C@@H](C)Oc1ccc(Oc2ncc(Cl)cc2F)cc1 [CLODINAFOP PROPARGYL] | 20 | 95 | 82 | 0 | 88
COC(=O)[C@@H](C)Oc1ccc(Oc2ncc(Cl)cc2F)cc1 | 35 | 90 | 80 | 10 | 75
C#CCOC(=O)[C@@H](C)Oc1ccc(Oc2ncc(Cl)cc2Cl)cc1 | 20 | 47 | 45 | 0 | 57
COC(=O)[C@@H](C)Oc1ccc(OC(=O)[C@@H](C)Oc2ccc(Oc3ncc(Cl)cc3Cl)cc2)cc1 | 15 | 43 | 44 | 0 | 42
CCCCOC(=O)[C@@H](C)Oc1ccc(OC(=O)[C@@H](C)Oc2ccc(Oc3ncc(Cl)cc3F)cc2)cc1 | 10 | 63 | 54 | 5 | 62
CCCCOC(=O)[C@@H](C)Oc1ccc(Oc2ncc(Cl)cc2F)cc1 | 25 | 62 | 55 | 15 | 54
C#CCOC(=O)[C@@H](C)Oc1ccc(OC(=O)[C@@H](C)Oc2ccc(Oc3ncc(Cl)cc3F)cc2)cc1 | 0 | 100 | 92 | 0 | 100
COC(=O)[C@@H](C)Oc1ccc(Oc2ncc(Cl)cc2Cl)cc1 | 30 | 30 | 40 | 10 | 30
CCOC(=O)[C@@H](C)Oc1ccc(OC(=O)[C@@H](C)Oc2ccc(Oc3ncc(Cl)cc3F)cc2)cc1 | 10 | 93 | 80 | 0 | 90
CCCOC(=O)[C@@H](C)Oc1ccc(Oc2ncc(Cl)cc2F)cc1 | 35 | 84 | 62 | 10 | 76
